Results on eight molecules are retold here after patent US4910193A, “Treatment of gastrointestinal disorders” (Sandoz Ltd., priority 1987, dated 1990).

Molecules are shown by their SMILES. Counter-ions that a name gives are not always drawn. Like-named read-outs stand apart in the source and are kept apart here.

A short description of series [1]: Properties of salt forms (solubility, stability). The class given is physicochemical. As to conditions: in words.
Series [2] has as its system gastrointestinal motility induced by 5-hydroxytryptophan (5-HTP). In words: Test C: inhibition of increase in gastrointestinal motility induced by 5-HTP. It is filed as in vivo, mouse (male NMRI). The settings on record: Mus musculus, ip; inhibition of 5-HTP induced motility. As for the experimental part:
In a further test the inhibition of the compounds of the invention in inhibiting the increase in gastrointestinal motility induced by 5-hydroxytryptophan (5-HTP) was observed.
Male NMRI mice (18-32 g in weight) are deprived of food 20 hours before the test. Water is not limited. The animals are separated by a barrier from their straw and access to feces. At the beginning of the test the animals are separated in individual single cages and water is removed.
All animals were treated with the test compound or saline. I.p. administration was used. Injection volume was 0.1 ml/10 g. 30 minutes after pre-treatment 5-HTP or saline was administered. Injection volume 0.1 ml/10 g. Dose 3 mg/kg. At the same time charcoal was administered perorally (10% suspension in water; 0.1 ml/10 g). 45 minutes after the start of the experiment the animals were killed. The intestines from the stomach to the rectum were examined. For each animal the transit distance of the front of the charcoal mean along the intestine was measured. The distance was ascertained as a percentage of the whole intestinal length. Groups of at least 3 animals were used.

In series [3] the target is T1, low affinity 5-HT receptor (Cavia porcellus, UniProt O70212).
T1 construct: The isolated longitudinal muscle of the guinea pig ileum with its adhering myenteric plexus; from tissue; host or cells: longitudinal muscle strips of ileum with myenteric plexus, male guinea pigs
T1 sequence (O70212 20-490): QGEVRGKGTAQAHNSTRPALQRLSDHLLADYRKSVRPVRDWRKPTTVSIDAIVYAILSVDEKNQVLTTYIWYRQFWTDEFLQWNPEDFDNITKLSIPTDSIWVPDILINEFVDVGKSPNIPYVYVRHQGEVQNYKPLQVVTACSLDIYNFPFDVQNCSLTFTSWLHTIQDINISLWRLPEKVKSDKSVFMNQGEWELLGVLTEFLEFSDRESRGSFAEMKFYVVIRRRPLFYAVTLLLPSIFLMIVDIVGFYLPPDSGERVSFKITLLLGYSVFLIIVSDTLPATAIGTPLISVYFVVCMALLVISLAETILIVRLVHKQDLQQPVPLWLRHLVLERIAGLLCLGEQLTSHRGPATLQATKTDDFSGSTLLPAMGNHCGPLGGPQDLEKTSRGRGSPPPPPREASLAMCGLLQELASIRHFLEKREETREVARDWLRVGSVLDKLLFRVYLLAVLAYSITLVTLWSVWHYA
The experiment in a line: Isolated longitudinal muscle of guinea pig ileum, 5-HT contraction, low affinity receptor. As to conditions: read-out: pA2 (converted).
Method: Male guinea pigs (200-400 g) were killed by a blow on the head and exsanguineated. A length of small intestine was removed about 2 cm from the ileo-caecal valve. The mesentery was carefully removed and the ileum was stretched over a glass rod. By stroking tangentially away from the mesenteric attachement with a wad of cotton wool, the longitudinal muscle layer was separated and stripped from the unterlying circular muscle. Longitudinal muscle strips, 3-4 cm length, were mounted in a 10 ml organ bath containing Tyrode solution at 37° C. and bubbled with 5% carbon dioxide in oxygen. […] The strips were placed under a resting tension of 500 mg. Contractions were recorded with an isotonic pendulum lever. After equilibration for 30 min a set concentration of carbachol was applied in 10 min intervals until a consistent reaction was achieved.
Production of the concentration/reaction curve
Non-cumulative concentration-response curves for 5-HT were established by adding increasing concentrations of the agonist to the organ bath at intervals of at least 15 min. […] Each concentration was left in contact with the tissue for 1 min. […] The contractions expressed as percentage of the maximal response to 5-HT obtained from several preparations were plotted as mean values in order to obtain log-concentration-response curves.

Series [4] concerns high affinity 5-HT receptor. In words: Isolated longitudinal muscle of guinea pig ileum, 5-HT contraction, high affinity receptor. The source says: The isolated longitudinal muscle of the guinea pig ileum with its adhering myenteric plexus is a well established model which permits investigation of the mechanism of action of various neurotransmitters.
Male guinea pigs (200-400 g) were killed by a blow on the head and exsanguineated. A length of small intestine was removed about 2 cm from the ileo-caecal valve. The mesentery was carefully removed and the ileum was stretched over a glass rod. By stroking tangentially away from the mesenteric attachement with a wad of cotton wool, the longitudinal muscle layer was separated and stripped from the unterlying circular muscle. Longitudinal muscle strips, 3-4 cm length, were mounted in a 10 ml organ bath containing Tyrode solution at 37° C. and bubbled with 5% carbon dioxide in oxygen. The Tyrode solution was of the following composition (mmol/l): NaCl, 137.0; CaCl2, 1.8; KCl, 2.7; MgCl2, 1.05; NaHCO3, 11.9; NaH2 PO4, 0.4; glucose, 5.6. The strips were placed under a resting tension of 500 mg. Contractions were recorded with an isotonic pendulum lever. […]
Each concentration was left in contact with the tissue for 1 min. […] Inhibition constants were expressed in the form of pA2 values which were graphically determined according to conventional methods (Arunlakshana and Schild, 1959. McKay 1978). […]

Series [5] has as its target dopamine binding sites. The settings on record: tritiated haloperidol; read-out: IC50 dopamine sites (literature); cited from earlier work.
The test system of the next series is dopamine. As to conditions: in words; comparison drug; cited from earlier work.
Series [6] has as its target dopamine binding sites. In words: Binding to dopamine sites with tritiated haloperidol. As to the method:
Several drugs e.g. metoclopramide are known for the treatment of gastrointestinal disorders (gut motility disorders). Action has been ascribed to opiates (e.g. loperamide), dopaminergic compounds (e.g. metoclopramide) although for most drugs the mode of the action is not well understood (see J. R. Malegeleda Scand. J. Gastroenterology, 19, Suppl. 96, 1984, pp. 115-121).
The compounds of the invention have insignificant action on dopamine binding sites, e.g. having an IC50 of […] or more using tritriated haloperidol.

In the next series the test system is rabbit heart. The settings on record: in words; cited from earlier work.
In series [7] the test system is 5-HT3 receptors in the guinea pig ileum. As to conditions: counteracting 5-HT induced spasms; cited from earlier work.
For the next series, the system named is rabbit vagus. The settings on record: in words; cited from earlier work.
Series [8] concerns muscle strips from different parts of the guinea pig stomach. The experiment in a line: Test A: field stimulation-induced contractions in guinea pig stomach muscle strips. The arrangement: species or system guinea pig (male Dunkin-Hartley). From the text:
The compounds of the invention facilitate field stimulation-induced contractions in muscle strips from different parts of the guinea pig stomach and are therefore indicated to increase decreased peristalic movements in the stomach and to enhance gastric emptying in vivo. The test is effected as follows:
Male Dunkin-Hartley guinea pigs, 340-450 g, which had been starved overnight, were killed by cervical transsection and the stomach removed and placed in Krebs-Henseleit solution (NaCl 118.0, KCl 4.75, KH2 PO4 1.2, MgSO4 1.2, CaCl2 2.5, glucose 10 mM). Segments were taken from the body (approximately 20 mm long, 3-4 mm wide) with dissection in a plane suitable to investigate tension changes in the circular muscle layer. Tissues were placed in 30 ml organ baths containing oxygenated (95% O2, 5% CO2) Krebs-Henseleit solution at 37° C. One gram tension was applied to the tissues which were allowed to equilibrate for 45-60 min. before electrical stimulation. […] Responses were measured as changes in gram tension, but to allow easier comparison between treatments, data was converted to show changes as percentage values. The significance of differences between control responses and those obtained in the presence of interacting drugs was assessed using the Mann-Whitney U test.

Series [9] concerns conscious guinea pigs having stomachs made atonic. The experiment in a line: Test B: gastric emptying in conscious guinea pigs (X-ray of spheroids). It is filed as in vivo, guinea pig. The settings on record: versus metoclopramide. As to the method: The compounds of the invention also induce gastric emptying as indicated in standard in vivo tests, e.g. in conscious guinea pigs having stomachs made atonic (i.e. having decreased peristaltic movements) by fasting and wherein the passage of glass spheroids was observed by X-ray techniques. The experiments is effected as follows:
Food was withdrawn for 14 hours before the measurement of gastric emptying. The experiment was conducted under low illumination with minimal noise and disturbance, and was carried out only by those experimentors who had daily contact with the guinea pigs and who carried out the initial training to accustom the guinea pigs to handling. Therefore, animals were subject to minimal stress. […] Gastric emptying was measured as the number of spheroids leaving the stomach.
Six guinea pigs were used at each dose level of drug and responses compared to those of guinea pigs receiving the appropriate vehicle. The significance of differences between drug and control responses was assessed using the Mann Whitney U test.

Series [10] deals with chloera toxin-induced secretory diarrhea. Further details: species or system mouse (male NMRI). The settings on record: mouse, in vivo.
The test system of another series is 5-HT reflex. The settings on record: in words; comparison drug; cited from earlier work.

The term ED50 denotes the midpoint of the dose-response relation. Higher therefore signals weaker potency. The term IC50 denotes the concentration needed to halve the response being measured.

Consider `CN1[C@@H]2CCC[C@H]1C[C@@H](OC(=O)c1cn(C)c3ccc(F)cc13)C2` [hydrogen maleate of compound G], for which the “solubility and stability properties of salt form” value in series [1] is “especially advantageous properties, e.g. from the solubility and stability point of view”.
On to `CN1[C@@H]2CCC[C@H]1C[C@@H](OC(=O)c1csc3ccccc13)C2` [Compound F, Benzo[b]thiophen-3-yl carboxylic acid endo-9-methyl-aza-bicyclo[3,3,1]non-3-yl ester], for which it took a dose of 0.025 mg/kg to reach the 50% effect level in series [2] (ED50). Also, the Kb in [3] was 0.398 nM. Moreover, in series [4], the “pD'2” value came to 5.9.
In [2], `CN1[C@@H]2CCC[C@H]1C[C@@H](OC(=O)c1cn(C)c3ccc(F)cc13)C2` [Compound G, 5-fluoro-1-methyl-indol-3-yl carboxylic acid endo-9-methyl-9-aza-bicyclo[3,3,1]non-3-yl ester] showed a 50% effective dose (ED50) of 0.002 mg/kg.
Regarding `CCN(CC)CCNC(=O)c1cc(Cl)c(N)cc1OC` [metoclopramide], the IC50 at dopamine binding sites [5] was about 170 nM. Moreover, the dopamine action entry in the series on dopamine is reported as “dopamine agonist action”.
Turning to `CN1[C@@H]2CCC[C@H]1C[C@@H](OC(=O)c1csc3ccccc13)C2` [hydrochloride of compound F], the “solubility and stability properties of salt form” value in series [1] was “especially advantageous properties, e.g. from the solubility and stability point of view”.
Molecule `CNc1cc(OC)c(C(=O)NC2CN3CCC2CC3)cc1Cl` (centres unmarked) [Example 71] displayed a half-maximal inhibitory concentration (IC50) at dopamine binding sites [6] of over 10000 nM.
Regarding `CN1[C@@H]2CC[C@H]1C[C@@H](OC(=O)c1c[nH]c3ccccc13)C2` [Compound E, Indol-3-yl carboxylic acid endo-8-methyl-8-aza-bicyclo-[3,2,1]oct-3-yl ester], in the series on rabbit heart, the “action against 5-HT on rabbit heart” value is reported as “antagonistic action against 5-HT”. Further, the “action at 5-HT3 receptors in guinea pig ileum” value in series [7] was “competitive antagonist of the 5-HT3 receptors in the guinea pig ileum”. In addition, the “action against 5-HT on rabbit vagus” value in the series with rabbit vagus was “antagonistic action against 5-HT”. In addition, in [2], it took a dose of 0.07 mg/kg to reach the 50% effect level (ED50). Moreover, the EC (maximal response) in series [8] (Cavia porcellus, field stimulation of stomach strips, read-out: concentration producing maximal response) stood at 0.01 µM. In series [8] (versus metoclopramide), the “times more active than metoclopramide (contraction)” value is listed as 100 times. The “times more active than metoclopramide (gastric emptying)” value in series [9] was “about 50 times”. For the same molecule, in [3], the Kb is 12.6 nM. Moreover, in series [10], the “effect of increased dose on stomach contents” value was “did not lead to a reduction in the stomach contents”. In series [4], the “pD'2” value stood at 5.7.
On to `CN1[C@@H]2CC[C@H]1C[C@@H](OC(=O)C(CO)c1ccccc1)C2` (some centres unmarked) [atropine], for which the “effect on the whole reflex” value with 5-HT reflex is given as “paralyse the whole reflex”.
